Experimental data taken from patent publication US20170205398A1, “DRUG SCREENING AND POTENCY ASSAYS” (REGENMED (CAYMAN) LTD., priority 2011, published 2017).

System: γ-glutamyl transpeptidase (GGT)
Experiment: Amphotericin B knockdown of SRC/NKA ex vivo GGT (western blot band density, semilogarithmic dose response)
Type: cell-based, human
Excerpt: Morphological, genotypic, phenotypic and functional changes to 2D cultured SRC were monitored to 72hrs following exposure to escalating doses of the well known nephrotoxin, Amphotericin B (Amp B). The TC50 was estimated by Amp B knockdown of SRC/NKA ex vivo GGT activity.
GGT inhibition detected by western blot is shown in below in Table 16.1.
Results from semilogarithmic dose response analysis are shown below in Table 16.2.

Question: Which IC50 (2D cultured SRC, exposure to 72 hrs, sigmoidal fit Log(inhibitor) vs response, read-out: IC50 of inhibitory effect on SRC-mediated GGT) does the source give for C[C@@H]1[C@H](O)[C@@H](C)/C=C/C=C/C=C/C=C/C=C/C=C/C=C/[C@H](O[C@@H]2O[C@H](C)[C@@H](O)[C@H](N)[C@@H]2O)C[C@@H]2O[C@](O)(C[C@@H](O)C[C@@H](O)[C@H](O)CC[C@@H](O)C[C@@H](O)CC(=O)O[C@H]1C)C[C@H](O)[C@H]2C(=O)O [Amphotericin B] here?
Answer: 32.3 µM

Question: And the LOGIC50 (Log(inhibitor) vs response fit, 2D cultured SRC)?
Answer: 1.510

Question: And the “GGT western blot band density (response)” value ([c] 0.01)?
Answer: 18764

Question: And the “inv response (inverse of band density)” value ([c] 0.01)?
Answer: 5.329E−05

Question: What about the “GGT western blot band density (response)” value ([c] 0.1) of the same compound?
Answer: 18959

Question: What about the “inv response (inverse of band density)” value ([c] 0.1) of the same compound?
Answer: 5.275E−05

Question: And the “GGT western blot band density (response)” value ([c] 1)?
Answer: 17112

Question: What about the “inv response (inverse of band density)” value ([c] 1) of the same compound?
Answer: 5.844E−05

Question: And the “GGT western blot band density (response)” value ([c] 10)?
Answer: 16611

Question: And the “inv response (inverse of band density)” value ([c] 10)?
Answer: 6.02E−05

Question: And the “GGT western blot band density (response)” value ([c] 100)?
Answer: 8227

Question: And the “inv response (inverse of band density)” value ([c] 100)?
Answer: 0.0001216

Question: What about the “GGT western blot band density (response)” value ([c] 1000) of the same compound?
Answer: 8000

Question: What about the “inv response (inverse of band density)” value ([c] 1000) of the same compound?
Answer: 0.000125

Question: And the “GGT western blot band density (response)” value ([c] 10000)?
Answer: 7800

Question: What about the “inv response (inverse of band density)” value ([c] 10000) of the same compound?
Answer: 0.0001282
